Test results taken from the supplement of paper PMC10307832.

Legend:
Test in all cases: relative viability (nuclei count vs DMSO), 5 days (fraction); higher = more cells survive
[1] = compound: CC1=C(CC(=O)O)c2cc(F)ccc2/C1=C\c1ccc([S+](C)[O-])cc1 [Sulindac] + CC(C)C[C@H](NC(=O)[C@H](Cc1ccccc1)NC(=O)c1cnccn1)B(O)O [Bortezomib] (partner 0.002 µM)
Procedure, shortened: (§1)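 Dosing by pin tool came one day after lung cancer cell lines were seeded in 1536-well plates, using either one drug or a fixed anchor-drug dose plus five library-drug doses (not always all listed) in √10 steps. After 5 days, nuclei were counted on 4× images. Relative viability is treated-well nuclei count divided by vehicle-well nuclei count, and values are medians of duplicate plates.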

[2] = compound: O=c1[nH]cc(F)c(=O)[nH]1 [5-Fluorouracil] + Nc1nc2[nH]cc(CCc3ccc(C(=O)N[C@@H](CCC(=O)O)C(=O)O)cc3)c2c(=O)[nH]1 [Pemetrexed] (partner 0.2 µM)
Procedure, shortened: as §1

[3] = compound: CC1=C(CC(=O)O)c2cc(F)ccc2/C1=C\c1ccc([S+](C)[O-])cc1 [Sulindac] + C[C@]1(O)C[C@@H](c2nc(-c3ccc4ccc(-c5ccccc5)nc4c3)c3c(N)nccn32)C1 [Linsitinib] (partner 1 µM)
Procedure, shortened: as §1

[4] = compound: CN[C@@H]1C[C@H]2O[C@@](C)([C@@H]1OC)n1c3ccccc3c3c4c(c5c6ccccc6n2c5c31)C(=O)NC4 [Staurosporine] + CC(=O)c1c(C)c2cnc(Nc3ccc(N4CCNCC4)cn3)nc2n(C2CCCC2)c1=O [Palbociclib] (partner 0.5 µM)
Procedure, shortened: as §1

Cell Line	relative viability ([1]; first compound 0.08 µM)	relative viability ([1]; first compound 0.253 µM)	relative viability ([1]; first compound 0.8 µM)	relative viability ([1]; first compound 2.53 µM)	relative viability ([1]; first compound 8 µM)	relative viability ([2]; first compound 0.02 µM)	relative viability ([2]; first compound 0.2 µM)	relative viability ([2]; first compound 0.6325 µM)	relative viability ([2]; first compound 2 µM)	relative viability ([3]; first compound 0.08 µM)	relative viability ([3]; first compound 0.253 µM)	relative viability ([3]; first compound 0.8 µM)	relative viability ([3]; first compound 2.53 µM)	relative viability ([3]; first compound 8 µM)	relative viability ([4]; first compound 0.005 µM)	relative viability ([4]; first compound 0.05 µM)	relative viability ([4]; first compound 0.1581 µM)	relative viability ([4]; first compound 0.5 µM)	relative viability ([4]; first compound 0.01581 µM)
201T	1.12	1.1	1.06	1.12	1.08	0.322	0.267	0.274	0.248	1.06	1.04	1.1	1.02	1.01	0.362	0.329	0.274	0.285	–
RERF-LC-KJ	1.23	1.08	0.92	1.07	1.25	0.483	0.507	0.531	0.495	0.922	0.948	0.738	0.895	0.895	0.914	0.475	0.4	0.26	0.916
NCI-H1734	1.01	0.937	0.731	0.914	1.25	0.419	0.412	0.401	0.45	0.987	0.932	0.575	0.903	1.13	0.332	0.202	0.16	0.147	0.204
PC-14	1.05	0.902	–	0.929	0.783	0.128	0.14	0.147	0.18	1.01	1.02	0.708	1.02	1.07	0.174	0.0379	0.0411	0.0434	0.077
NCI-H1915	1.18	1.08	0.861	0.956	1.05	0.395	0.542	0.421	0.419	1.13	1.14	1.09	1.11	1.07	0.379	0.237	0.175	0.109	0.323
COR-L23	1.17	1.14	–	1.2	1.23	0.194	0.195	0.194	0.185	1.18	0.925	–	0.906	0.999	0.218	0.117	0.103	0.0791	0.109
HOP-62	0.913	1.03	1.02	0.809	0.564	0.323	0.361	0.287	0.342	0.858	0.937	1.14	1.03	1.16	0.334	0.116	0.106	0.0933	0.194
NCI-H1975	0.387	0.461	–	0.334	0.441	0.309	0.28	0.243	0.219	1.14	1.03	–	1.07	1.05	0.16	0.159	0.0883	0.0924	0.124
BEN	0.829	0.889	0.714	0.748	0.947	0.817	0.837	0.758	0.903	1.02	0.892	0.571	0.967	1.07	0.553	0.397	0.446	0.295	0.478
NCI-H1437	0.553	0.767	0.293	0.418	0.688	0.269	0.271	0.208	0.262	1.33	1.14	0.628	1.09	1.26	0.27	0.168	0.116	–	0.182
EMC-BAC-2	1.14	1.1	0.824	1.06	1.08	0.47	0.479	0.419	0.484	0.894	0.882	0.726	0.809	0.835	0.383	0.213	0.228	0.207	0.242
SW 1573	–	1	–	1.19	1.13	0.853	0.815	0.704	0.408	0.834	0.788	0.804	0.95	0.722	0.172	0.131	0.0619	0.081	0.113
NCI-H661	0.726	0.769	0.688	0.852	0.885	0.998	0.905	0.947	0.883	0.585	0.564	0.501	0.637	0.711	0.418	0.329	0.26	0.192	0.337
LXF-289	1.06	1.04	0.991	1.04	0.974	0.807	0.704	0.494	0.363	1.02	0.984	0.931	1.05	0.993	0.717	0.16	0.141	0.117	0.21
LOU-NH91	0.554	0.516	0.601	0.531	0.459	0.359	0.342	0.317	0.309	0.877	0.916	0.858	0.933	1.09	0.535	0.475	0.314	0.28	0.446
NCI-H2347	0.884	0.97	0.704	0.86	1.11	0.365	0.414	0.424	0.426	1.07	1.09	0.982	1.06	1.16	0.433	0.331	0.375	0.324	0.398
NCI-H2009	1.1	1.16	0.877	1.01	1.04	1.15	0.968	0.85	0.656	1.22	1.3	1.05	1.13	1.23	0.147	0.13	0.0987	0.0664	0.159

Cell Line	relative viability ([1]; first compound 0.08 µM)	relative viability ([1]; first compound 0.253 µM)	relative viability ([1]; first compound 0.8 µM)	relative viability ([1]; first compound 2.53 µM)	relative viability ([1]; first compound 8 µM)	relative viability ([2]; first compound 0.02 µM)	relative viability ([2]; first compound 0.2 µM)	relative viability ([2]; first compound 0.6325 µM)	relative viability ([2]; first compound 2 µM)	relative viability ([3]; first compound 0.08 µM)	relative viability ([3]; first compound 0.253 µM)	relative viability ([3]; first compound 0.8 µM)	relative viability ([3]; first compound 2.53 µM)	relative viability ([3]; first compound 8 µM)	relative viability ([4]; first compound 0.005 µM)	relative viability ([4]; first compound 0.05 µM)	relative viability ([4]; first compound 0.1581 µM)	relative viability ([4]; first compound 0.5 µM)	relative viability ([4]; first compound 0.01581 µM)
HCC-827	1.01	1.13	0.93	1.06	1.11	0.238	0.239	0.273	0.262	0.932	0.939	0.988	0.937	0.967	0.59	0.299	0.226	0.225	0.401
CAL-12T	0.999	1.06	0.852	0.918	1.26	1.19	1	0.942	0.657	0.787	0.858	0.593	0.795	0.705	0.196	0.107	0.142	0.122	0.138
PC-3 [JPC-3]	0.967	0.796	1.02	0.907	0.862	0.987	1.02	1.02	0.751	0.932	0.95	0.951	0.905	0.984	0.563	0.398	0.398	0.343	0.513
NCI-H23	0.991	1.26	0.58	1.25	1.27	0.944	0.63	0.408	0.337	0.584	0.6	0.32	0.678	0.758	0.255	0.162	0.147	0.131	0.253
NCI-H838	0.951	0.774	0.512	0.628	0.76	0.261	0.253	0.257	0.249	1.19	1.06	0.848	1.01	1.2	0.151	0.151	0.121	0.0855	0.138
HCC-366	1.9	1.06	0.306	1	1.33	0.142	0.145	0.0984	0.123	0.567	0.759	0.183	0.787	1.03	0.297	0.113	0.0357	0.0204	–
NCI-H1666	–	0.724	0.729	0.767	0.937	0.922	0.763	0.61	0.548	–	0.797	0.854	0.779	0.854	0.63	0.679	0.482	0.462	0.555
HCC-44	0.89	0.882	0.853	0.904	0.966	0.641	0.625	0.569	0.471	0.769	0.729	0.707	0.702	0.786	–	0.768	0.53	0.41	–
A-427	0.899	0.976	1.08	0.965	1.17	0.852	0.984	0.866	0.55	1.1	1.14	1.11	1.14	1.11	0.509	0.346	0.246	0.193	0.425
NCI-H460	–	1.19	–	1.12	1.67	0.0627	0.0623	0.0575	0.0952	1.13	0.79	–	0.988	1.15	0.0657	0.0429	0.0284	0.0184	0.0441
NCI-H441	0.594	0.54	0.458	0.422	1.11	0.262	0.27	0.235	0.239	0.469	0.375	0.48	0.638	0.849	0.161	0.118	0.114	0.112	0.12
NCI-H2085	0.976	1.06	0.917	1.12	1.11	0.886	0.893	0.857	0.599	0.894	0.856	0.876	0.848	0.912	0.442	0.355	0.301	0.303	0.359
NCI-H650	0.845	0.877	0.862	0.897	1.08	0.762	0.649	0.36	0.317	0.973	0.87	0.62	0.817	1.23	0.262	0.224	0.234	0.199	0.208
NCI-H3122	1.05	1.01	1.1	1.04	1.02	0.197	0.181	0.167	0.164	1.07	1.01	0.928	1.07	1.07	0.248	0.225	–	0.171	–
LCLC-103H	1.24	1.11	0.948	1.05	1.21	0.481	0.413	0.464	0.384	1.18	1.22	0.94	1.04	1.2	0.507	0.393	0.29	0.253	0.43
NCI-H1792	1.24	0.995	–	0.987	1.24	0.948	0.569	0.215	0.191	0.557	0.561	–	0.455	0.558	0.614	0.323	0.274	0.26	0.577
NCI-H1755	1.25	1.03	0.85	1.01	1.04	0.509	0.367	0.32	0.295	1.16	1.07	0.906	1	1.05	0.395	0.263	0.253	0.247	0.339
